molecular target: T1, Adenosine receptor A1 (Rattus norvegicus, UniProt P25099); assay: Displacement of [3H]R-N6-phenylisopropyladenosine from adenosine A1 receptor in rat cerebral cortical membrane; assay type: cell membranes; conditions: read-out: -Log Ki (converted)
T1 sequence (P25099 whole entry): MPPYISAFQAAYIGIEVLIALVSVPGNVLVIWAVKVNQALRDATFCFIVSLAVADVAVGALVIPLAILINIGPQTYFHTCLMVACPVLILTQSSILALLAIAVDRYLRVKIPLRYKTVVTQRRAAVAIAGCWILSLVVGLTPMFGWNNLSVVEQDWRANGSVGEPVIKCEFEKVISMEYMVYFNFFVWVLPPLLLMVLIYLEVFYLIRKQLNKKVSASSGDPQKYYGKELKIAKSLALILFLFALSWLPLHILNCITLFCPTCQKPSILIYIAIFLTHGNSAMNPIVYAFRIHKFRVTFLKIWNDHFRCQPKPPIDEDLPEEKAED

Ki [µM] | SMILES
333 | OCC1CC=CC1n1cnc2c(NC3CCCC3)ncnc21 (racemic)

same assay, conditions: read-out: Ki

Ki [µM] | SMILES
3 | OCC1CC=CC1n1cnc2c(NC3CCCC3)ncnc21 (racemic)
25.5 | OCC1CC=CC1n1cnc2c(NCc3ccccc3I)ncnc21 (racemic)
32.3 | OCC1CC=CC1n1cnc2c(NC3CC3)ncnc21 (racemic)

molecular target: T2, Adenosine receptor A1 (Rattus norvegicus) (UniProt P25099); assay: Displacement of [3H]R-N6-phenylisopropyladenosine from adenosine A1 receptor in rat cerebral cortical membrane at 100 uM; assay type: cell membranes; conditions: not given
T2 sequence (whole entry): T1 sequence (P25099 whole entry)

inhibition [%] | SMILES
22 | CNC(=O)C1CC=CC1n1cnc2c(N)ncnc21 (racemic)
50 | CNC(=O)C1CC=CC1n1cnc2c(NC3CC3)ncnc21 (racemic)
< 10 | CNC(=O)C1CC=CC1n1cnc2c(NC3CCCC3)ncnc21 (racemic)
< 10 | CNC(=O)C1CC=CC1n1cnc2c(NCc3ccccc3)ncnc21 (racemic)
25 | CNC(=O)C1CCCC1n1cnc2c(N)ncnc21 (racemic)
< 10 | CNC(=O)C1CCCC1n1cnc2c(NC3CC3)ncnc21 (racemic)
31 | CNC(=O)C1CCCC1n1cnc2c(NC3CCCC3)ncnc21 (racemic)
26 | CNC(=O)C1CCCC1n1cnc2c(NCc3ccccc3)ncnc21 (racemic)
< 10 | CNC(=O)C1CCCC1n1cnc2c(NCc3ccccc3I)ncnc21 (racemic)
29 | NNc1ncnc2c1ncn2C1C=CCC1CO (racemic)

Reference: ChEMBL document CHEMBL1142262, “New QSAR combined strategy for the design of A1 adenosine receptor agonists” (Bioorg Med Chem, 2008)
